Source: PubChem BioAssay AID248 (DTP/NCI, 2004)
“And” between values parts separate entries of the source, which are not always exact repeats. Equal entries are not always repeated. Toxic doses and inconclusive results are not listed. No stated cut-off is given here; in the data, active means T/C of 150% or more; inactive means T/C below 125%.

System: L1210 leukemia ip in BDF1 mice, survival T/C
Test: NCI In Vivo Anticancer Drug Screen. Data for tumor model L1210 Leukemia (intraperitoneal) in B6D2F1 (BDF1) mice
Details: endpoint: mean survival time, higher = longer survival
How it was run: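 Transplanted-tumor mice were given test agent; controls received vehicle only. Survival readings from the two groups were divided (treated over control).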

Measured: T/C

COC(=O)[C@@H](O)[C@](O)(CCC(C)C)C(=O)O[C@@H]1C(OC)=C[C@]23CCCN2CCc2cc4c(cc2[C@H]13)OCO4
inactive: dose: 0.12 mg/kg/injection, schedule: Q03HX024 (ip), vehicle: saline 98 % of control | dose: 0.25 mg/kg/injection, schedule: Q01DX009 (ip), vehicle: saline 108 % of control | dose: 0.25 mg/kg/injection, schedule: Q03HX008 (ip), vehicle: saline 106 % of control | dose: 0.25 mg/kg/injection, schedule: Q03HX016 (ip), vehicle: saline 101 % of control | dose: 0.25 mg/kg/injection, schedule: Q03HX024 (ip), vehicle: saline 107 % of control | dose: 0.5 mg/kg/injection, schedule: Q01DX006 (iv), vehicle: saline 100 % of control | dose: 0.5 mg/kg/injection, schedule: Q01DX009 (ip), vehicle: saline 107 % of control | dose: 0.5 mg/kg/injection, schedule: Q01DX009 (oral), vehicle: saline 103 % of control | dose: 0.5 mg/kg/injection, schedule: Q01DX009 (sc), vehicle: saline 104 % of control | dose: 0.5 mg/kg/injection, schedule: Q03HX008 (ip), vehicle: saline 104 % of control | dose: 0.5 mg/kg/injection, schedule: Q03HX016 (ip), vehicle: saline 108 % of control | dose: 0.5 mg/kg/injection, schedule: Q03HX024 (ip), vehicle: saline 100 % of control | dose: 0.93 mg/kg/injection, schedule: Q01DX009 (ip), vehicle: water 106 % of control | dose: 1.0 mg/kg/injection, schedule: Q01DX006 (iv), vehicle: saline 102 % of control | dose: 1.0 mg/kg/injection, schedule: Q01DX009 (ip), vehicle: saline 115 % of control | dose: 1.0 mg/kg/injection, schedule: Q01DX009 (oral), vehicle: saline 93 % of control | dose: 1.0 mg/kg/injection, schedule: Q01DX009 (sc), vehicle: saline 104 % of control | dose: 1.0 mg/kg/injection, schedule: Q03HX008 (ip), vehicle: saline 101 % of control and 106 % of control | dose: 1.0 mg/kg/injection, schedule: Q03HX016 (ip), vehicle: saline 101 % of control and 106 % of control | dose: 1.0 mg/kg/injection, schedule: Q03HX024 (ip), vehicle: saline 100 % of control and 114 % of control | dose: 1.0 mg/kg/injection, schedule: Q04DX003 (ip), vehicle: saline 106 % of control | dose: 1.85 mg/kg/injection, schedule: Q01DX009 (ip), vehicle: water 109 % of control | dose: 1.87 mg/kg/injection, schedule: Q01DX009 (ip), vehicle: water 109 % of control | dose: 1.88 mg/kg/injection, schedule: Q01DX009 (ip), vehicle: water 114 % of control | dose: 2.0 mg/kg/injection, schedule: Q01DX001 (ip), vehicle: saline 102 % of control | dose: 2.0 mg/kg/injection, schedule: Q01DX001 (iv), vehicle: saline 102 % of control | dose: 2.0 mg/kg/injection, schedule: Q01DX001 (oral), vehicle: saline 97 % of control | dose: 2.0 mg/kg/injection, schedule: Q01DX001 (sc), vehicle: saline 104 % of control | dose: 2.0 mg/kg/injection, schedule: Q01DX006 (iv), vehicle: saline 103 % of control and 108 % of control | dose: 2.0 mg/kg/injection, schedule: Q01DX009 (ip), vehicle: saline 107 % of control and 111 % of control | dose: 2.0 mg/kg/injection, schedule: Q01DX009 (oral), vehicle: saline 108 % of control | dose: 2.0 mg/kg/injection, schedule: Q01DX009 (sc), vehicle: saline 106 % of control | dose: 2.0 mg/kg/injection, schedule: Q03HX008 (ip), vehicle: saline 105 % of control and 113 % of control | dose: 2.0 mg/kg/injection, schedule: Q03HX016 (ip), vehicle: saline 96 % of control and 107 % of control | dose: 2.0 mg/kg/injection, schedule: Q03HX024 (ip), vehicle: saline 104 % of control | dose: 2.0 mg/kg/injection, schedule: Q04DX003 (ip), vehicle: saline 106 % of control | dose: 2.0 mg/kg/injection, schedule: Q08DX002 (ip), vehicle: saline 98 % of control | dose: 4.0 mg/kg/injection, schedule: Q01DX001 (ip), vehicle: saline 106 % of control | dose: 4.0 mg/kg/injection, schedule: Q01DX001 (iv), vehicle: saline 101 % of control | dose: 4.0 mg/kg/injection, schedule: Q01DX001 (oral), vehicle: saline 100 % of control | dose: 4.0 mg/kg/injection, schedule: Q01DX001 (sc), vehicle: saline 114 % of control | dose: 4.0 mg/kg/injection, schedule: Q01DX006 (iv), vehicle: saline 103 % of control and 111 % of control | dose: 4.0 mg/kg/injection, schedule: Q01DX009 (ip), vehicle: saline 116 % of control and 124 % of control | dose: 4.0 mg/kg/injection, schedule: Q01DX009 (oral), vehicle: saline 113 % of control and 114 % of control and 120 % of control | dose: 4.0 mg/kg/injection, schedule: Q01DX009 (sc), vehicle: saline 113 % of control | dose: 4.0 mg/kg/injection, schedule: Q03HX008 (ip), vehicle: saline 114 % of control | dose: 4.0 mg/kg/injection, schedule: Q03HX016 (ip), vehicle: saline 103 % of control | dose: 4.0 mg/kg/injection, schedule: Q04DX003 (ip), vehicle: saline 110 % of control and 113 % of control | dose: 4.0 mg/kg/injection, schedule: Q08DX002 (ip), vehicle: saline 108 % of control | dose: 5.0 mg/kg/injection, schedule: Q01DX009 (ip), vehicle: saline 116 % of control | dose: 8.0 mg/kg/injection, schedule: Q01DX001 (ip), vehicle: saline 104 % of control and 105 % of control | dose: 8.0 mg/kg/injection, schedule: Q01DX001 (iv), vehicle: saline 106 % of control and 115 % of control | dose: 8.0 mg/kg/injection, schedule: Q01DX001 (oral), vehicle: saline 100 % of control | dose: 8.0 mg/kg/injection, schedule: Q01DX001 (sc), vehicle: saline 110 % of control and 115 % of control | dose: 8.0 mg/kg/injection, schedule: Q01DX006 (iv), vehicle: saline 120 % of control | dose: 8.0 mg/kg/injection, schedule: Q01DX009 (oral), vehicle: saline 114 % of control | dose: 8.0 mg/kg/injection, schedule: Q01DX009 (sc), vehicle: saline 122 % of control | dose: 8.0 mg/kg/injection, schedule: Q04DX003 (ip), vehicle: saline 101 % of control and 107 % of control | dose: 8.0 mg/kg/injection, schedule: Q08DX002 (ip), vehicle: saline 110 % of control | dose: 10.0 mg/kg/injection, schedule: Q01DX009 (ip), vehicle: saline 116 % of control | dose: 16.0 mg/kg/injection, schedule: Q01DX001 (ip), vehicle: saline 108 % of control and 112 % of control | dose: 16.0 mg/kg/injection, schedule: Q01DX001 (iv), vehicle: saline 106 % of control and 107 % of control | dose: 16.0 mg/kg/injection, schedule: Q01DX001 (oral), vehicle: saline 107 % of control and 112 % of control | dose: 16.0 mg/kg/injection, schedule: Q01DX001 (sc), vehicle: saline 111 % of control and 118 % of control | dose: 16.0 mg/kg/injection, schedule: Q01DX006 (iv), vehicle: saline 122 % of control | dose: 16.0 mg/kg/injection, schedule: Q01DX009 (sc), vehicle: saline 89 % of control | dose: 16.0 mg/kg/injection, schedule: Q04DX003 (ip), vehicle: saline 100 % of control | dose: 16.0 mg/kg/injection, schedule: Q08DX002 (ip), vehicle: saline 106 % of control and 111 % of control | dose: 20.0 mg/kg/injection, schedule: Q01DX009 (ip), vehicle: saline 115 % of control | dose: 32.0 mg/kg/injection, schedule: Q01DX001 (ip), vehicle: saline 110 % of control | dose: 32.0 mg/kg/injection, schedule: Q01DX001 (oral), vehicle: saline 108 % of control and 118 % of control | dose: 32.0 mg/kg/injection, schedule: Q04DX003 (ip), vehicle: saline 107 % of control | dose: 32.0 mg/kg/injection, schedule: Q08DX002 (ip), vehicle: saline 102 % of control

CC1(C)C2=CCCC2CC/C1=N/NC(N)=O (configuration not stated)
inactive: dose: 25.0 mg/kg/injection, schedule: Q04DX002 (ip), vehicle: Klucel (hydroxypropylcellulose) (HPC) 107 % of control | dose: 50.0 mg/kg/injection, schedule: Q04DX002 (ip), vehicle: Klucel (hydroxypropylcellulose) (HPC) 93 % of control | dose: 100.0 mg/kg/injection, schedule: Q04DX002 (ip), vehicle: Klucel (hydroxypropylcellulose) (HPC) 90 % of control

O=[N+]([O-])c1cnc2ccnn2c1
inactive: dose: 100.0 mg/kg/injection, schedule: Q01DX009 (ip), vehicle: Klucel (hydroxypropylcellulose) (HPC) 101 % of control | dose: 100.0 mg/kg/injection, schedule: Q04DX003 (ip), vehicle: Klucel (hydroxypropylcellulose) (HPC) 100 % of control | dose: 200.0 mg/kg/injection, schedule: Q01DX009 (ip), vehicle: Klucel (hydroxypropylcellulose) (HPC) 97 % of control | dose: 200.0 mg/kg/injection, schedule: Q04DX003 (ip), vehicle: Klucel (hydroxypropylcellulose) (HPC) 92 % of control | dose: 400.0 mg/kg/injection, schedule: Q01DX009 (ip), vehicle: Klucel (hydroxypropylcellulose) (HPC) 111 % of control | dose: 400.0 mg/kg/injection, schedule: Q04DX003 (ip), vehicle: Klucel (hydroxypropylcellulose) (HPC) 100 % of control
